Converted amounts (≈) assume the structure as drawn. Like-named read-outs stand apart in the source and are kept apart here.
Experiments:
[1] = system: Proteus vulgaris ATCC 6897; assay: Minimum inhibitory concentration by agar dilution method; assay type: cell-based; settings: ATCC6897, agar dilution
Description: Antibacterial spectra of XK-62-2 by agar
The comparative in vitro activities of these antibiotics against various microorganisms of the genus Proteus are shown in the following Table 6.
(§1) Minimum inhibitory concentration
(§2) (γ/ml : by agar dilution method)

[2] = system: Pseudomonas aeruginosa KY 4276; assay: as above; assay type: cell-based; settings: KY4276, clinical isolate, Table 7
Description: as §1, §2

[3] = system: Pseudomonas aeruginosa KY 8510; assay: as above; assay type: cell-based
Description: as §1, §2

[4] = system: Pseudomonas aeruginosa KY 8511; assay: as above; assay type: cell-based; settings: KY8511, clinical isolate, Table 7
Description: as §1, §2

[5] = system: Pseudomonas aeruginosa KY 8512; assay: as above; assay type: cell-based; settings: KY8512, clinical isolate, Table 7
Description: as §1, §2

[6] = system: Pseudomonas aeruginosa KY 8514; assay: as above; assay type: cell-based; settings: KY8514, clinical isolate, Table 7
Description: as §1, §2

[7] = system: Pseudomonas aeruginosa KY 8515; assay: as above; assay type: cell-based; settings: KY8515, clinical isolate, Table 7
Description: as §1, §2

[8] = system: Pseudomonas aeruginosa KY 8516; assay: as above; assay type: cell-based
Description: as §1, §2

[9] = system: Pseudomonas aeruginosa KY 8520; assay: as above; assay type: cell-based; settings: KY8520, clinical isolate, Table 7
Description: as §1, §2

[10] = system: Pseudomonas aeruginosa KY 8562; assay: as above; assay type: cell-based; settings: KY8562, clinical isolate, Table 7
Description: as §1, §2

[11] = system: Pseudomonas aeruginosa KY 8510; assay: In vivo protection of mice against bacterial infection; settings: subcutaneous, inoculum 6.6×10^7 cells/mouse intraperitoneal
Method: In addition, the in vivo activity of XK-62-2 against pathogenic bacterial infections in mice is tested. […] They are then treated with various doses of the test antibiotic by subcutaneous injection.

[12] = system: Diplococcus pneumoniae III; assay: In vivo activity against pathogenic bacterial infections in mice
Description: (§3) The in vivo activity of XK-62-2 against pathogenic bacterial infections in mice is further tested using various Gram-positive and Gram-negative bacteria. The mice are infected with an inoculum of the bacteria by intraperitonial injection and then treated with the test antibiotic by subcutaneous injection.

[13] = system: Escherichia coli GN 2411-5; assay: as above
Description: as §3

[14] = system: Klebsiella pneumoniae No. 8045; assay: as above
Description: as §3

[15] = system: Proteus mirabilis 1287; assay: as above
Description: as §3

[16] = system: Staphylococcus aureus Smith; assay: as above
Description: as §3

[17] = system: Streptococcus pyogenes S23; assay: as above
Description: as §3

[18] = system: Bacillus subtilis No. 10707; assay: Activity (unit/mg) of isolated preparations; paper disk method using an agar plate; assay type: cell-based
Method: (§4) After the completion of fermentation, the culture liquor is adjusted to a pH of 2.0 with 12N sulfuric acid and stirred for 30 minutes. Then, about 10 kg of a filter aid, Radiolite No. 600 (product of Showa Kagaku Kogyo Co., Ltd., Japan) is added thereto and the microbial cells are removed by filtration. The filtrate is adjusted to a pH of 8.0 with 6N sodium hydroxide and passed through a column packed with about 50 l of a cation exchange resin, Amberlite IRC-50 (ammonia form). The active substance is adsorbed on the resin and the eluate is discarded. After washing the resin with water, the active substance is eluted out with 1N aqueous ammonia.
Active fractions are combined and concentrated in vacuo to about 5 l. The concentrate is then adjusted to a pH of 8.0 with 6N sulfuric acid and passed through a column packed with 1 l of an anion exchange resin, Dowex 1×2 (OH^- form). The column is washed with about 5 l of water and the effluent and the washings containing active substance are combined and are concentrated to 1/15 by volume. […] The resultant precipitate is removed by filtration and the filtrate is concentrated to 500 ml. The concentrate is adjusted to a pH of 4.5 with 6N sulfuric acid and 2.5 l of methanol is added thereto. […] The precipitate is separated by filtration and washed with methanol.
as §4, with “of” for “of a filter aid,”, “(trade name)” for “(product of Showa Kagaku Kogyo Co., Ltd., Japan)”, “The” for “The active substance is adsorbed on the resin and the”

[19] = vs gentamicin complex or gentamicin C1a

Q: With CNC[C@@H]1CC[C@@H](N)[C@@H](O[C@H]2[C@H](O)[C@@H](O[C@H]3OC[C@](C)(O)[C@H](NC)[C@H]3O)[C@H](N)C[C@@H]2N)O1 [XK-62-2] as the molecule, how does the MIC ([1]; Table 5, read-out: Minimum inhibitory concentration) read?
A: 0.03 µg/mL (≈ 0.0647 µM)

Q: What about the MIC ([1]; Table 6, read-out: Minimum inhibitory concentration) of the same molecule?
A: 0.04 µg/mL (≈ 0.0863 µM)

Q: What about the MIC [2] of the same molecule?
A: 0.33 µg/mL (≈ 0.712 µM)

Q: What about the Susceptibility of strain ([3]; KY 8510) of the same molecule?
A: sensitive

Q: And the MIC ([3]; Pseudomonas aeruginosa, KY8510, agar dilution, clinical isolate, Table 7)?
A: 0.33 µg/mL (≈ 0.712 µM)

Q: What about the “Antibacterial activity relative to gentamicin complex or gentamicin C1a” value [3, 19] of the same molecule?
A: much higher antibacterial activity

Q: What about the MIC [4] of the same molecule?
A: > 42 µg/mL

Q: What about the MIC [5] of the same molecule?
A: 0.33 µg/mL (≈ 0.712 µM)

Q: And the MIC [6]?
A: 0.55 µg/mL (≈ 1.19 µM)

Q: What about the MIC [7] of the same molecule?
A: > 42 µg/mL

Q: And the Susceptibility of strain ([8]; KY 8516)?
A: sensitive

Q: What about the MIC ([8]; Pseudomonas aeruginosa, KY8516, agar dilution, clinical isolate, Table 7) of the same molecule?
A: 0.33 µg/mL (≈ 0.712 µM)

Q: And the “Antibacterial activity relative to gentamicin complex or gentamicin C1a” value [8, 19]?
A: much higher antibacterial activity

Q: What about the MIC [9] of the same molecule?
A: 0.33 µg/mL (≈ 0.712 µM)

Q: What about the MIC [10] of the same molecule?
A: > 42 µg/mL

Q: What about the Survival of mice ([11]; 0.125 mg/mouse) of the same molecule?
A: 0%

Q: What about the Survival of mice ([11]; 0.25 mg/mouse) of the same molecule?
A: 30%

Q: What about the Survival of mice ([11]; 0.5 mg/mouse) of the same molecule?
A: 50%

Q: What about the Survival of mice ([11]; 1 mg/mouse) of the same molecule?
A: 80%

Q: And the Survival of mice ([11]; 2 mg/mouse)?
A: 100%

Q: And the ED50 ([12]; Streptococcus pneumoniae, sc, subcutaneous, challenge inoculum 4.4×10^3 cells/mouse, read-out: Median effective dose [ED50])?
A: 6.6 ± 1.9 mg/kg

Q: And the “Ratio XK-62-2/gentamicin complex” value ([12]; ratio of ED50)?
A: 0.86

Q: And the ED50 ([13]; Escherichia coli, GN2411, sc, subcutaneous, challenge inoculum 3.6×10^6 cells/mouse, read-out: Median effective dose [ED50])?
A: 10.8 ± 4.1 mg/kg

Q: And the “Ratio XK-62-2/gentamicin complex” value ([13]; ratio of ED50)?
A: 1.01

Q: What about the ED50 ([14]; Klebsiella pneumoniae, NO.8045, sc, subcutaneous, challenge inoculum 1.4×10^8 cells/mouse, read-out: Median effective dose [ED50]) of the same molecule?
A: 5.7 ± 1.4 mg/kg

Q: What about the “Ratio XK-62-2/gentamicin complex” value ([14]; ratio of ED50) of the same molecule?
A: 0.74

Q: And the ED50 ([15]; Proteus mirabilis, 1287, sc, subcutaneous, challenge inoculum 1.8×10^8 cells/mouse, read-out: Median effective dose [ED50])?
A: 10.4 ± 4.4 mg/kg

Q: What about the “Ratio XK-62-2/gentamicin complex” value ([15]; ratio of ED50) of the same molecule?
A: 0.97

Q: What about the ED50 ([16]; Staphylococcus aureus, sc, subcutaneous, challenge inoculum 1.8×10^8 cells/mouse, read-out: Median effective dose [ED50]) of the same molecule?
A: 0.28 ± 0.04 mg/kg

Q: What about the “Ratio XK-62-2/gentamicin complex” value ([16]; ratio of ED50) of the same molecule?
A: 1.33

Q: And the ED50 ([17]; Streptococcus pyogenes, S23, sc, subcutaneous, challenge inoculum 2.7×10^7 cells/mouse, read-out: Median effective dose [ED50])?
A: 17.7 ± 4.8 mg/kg

Q: And the “Ratio XK-62-2/gentamicin complex” value ([17]; ratio of ED50)?
A: 1.50

Q: And the Activity ([18]; Example 1, purified preparate, free base)?
A: 950 unit/mg

Q: What about the Activity ([18]; Example 2, free base, Mm-628 ATCC 21827) of the same molecule?
A: 932 unit/mg

Q: And the Activity ([18]; Example 3, purified preparate, free base)?
A: about 950 unit/mg

Q: What about the Activity ([18]; Example 4, free base) of the same molecule?
A: 900 unit/mg

Q: And the Activity ([18]; Example 5, free base)?
A: 975 unit/mg

Q: And the Activity ([18]; Example 6, free base, Micromonospora purpurea ATCC 15835)?
A: 925 unit/mg

Q: What about the Activity ([18]; Example 7, free base, Micromonospora echinospora ATCC 15837 NRRL 2985) of the same molecule?
A: 898 unit/mg

Q: What about the Activity ([18]; Example 7, free base, Micromonospora echinospora var. ferruginea NRRL 2995) of the same molecule?
A: 912 unit/mg

Q: And the Activity ([18]; Example 7, free base, Micromonospora echinospora var. pallida NRRL 2996)?
A: 925 unit/mg
